The nature of data set [1]: Proliferation assay of Table 2 (cell line not stated). The class given is cell-based. The conditions noted are these: concentration that inhibits cell viability (or growth) by 50% relative to vehicle control; read-out: Prolif IC50. The protocol: (§1) The LANTHA SCREEN™ TR-FRET PPARδ Competitive Binding Assay was conducted for a variety of compounds according to the instructions provided by the manufacturer (Invitrogen). In addition, proliferation assays were conducted. In Table 2, “Prolif IC50” is the concentration that inhibits cell viability (or growth) by 50% relative to a vehicle control, and “TR-F binding IC50 (μM)” is the concentration that competes binding by a labeled pan-agonist to the ligand binding domain of PPAR delta, by 50%.

The target of data set [2] is T1, ligand binding domain of PPAR delta (Homo sapiens, UniProt Q03181).
T1 construct: purchased Invitrogen
T1 sequence (Q03181 211-439 limits assumed): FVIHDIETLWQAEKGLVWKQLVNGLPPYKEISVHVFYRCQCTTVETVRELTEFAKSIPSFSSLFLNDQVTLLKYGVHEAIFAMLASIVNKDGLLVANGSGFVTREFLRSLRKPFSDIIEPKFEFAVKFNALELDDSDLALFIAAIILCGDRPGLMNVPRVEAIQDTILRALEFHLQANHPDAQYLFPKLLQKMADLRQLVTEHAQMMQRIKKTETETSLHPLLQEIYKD
In words: LANTHA SCREEN TR-FRET PPARδ Competitive Binding Assay. The protocol: as §1
On the technique in general: TR-FRET usually uses a lanthanide donor and a delayed reading to cut background.

The target of another data set is T2, LBD of PPARδ protein (Homo sapiens, UniProt Q03181).
T2 construct: co-transfection of a plasmid containing an LBD/Gal4 fusion construct; expressed in transfected cells; host or cells: U2-OS (human bone cancer line)
T2 sequence (Q03181 211-439 limits assumed): T1 sequence (Q03181 211-439 limits assumed)
Description: PPARδ ligand-binding domain (LBD)/Gal4 UAS-tk-luciferase reporter assay in U2-OS cells. The data set is classed as cell-based. As to conditions: from GAL-4 binding and PPRE transactivation reporter screens. The protocol: (§2) General Testing Procedures. Each ligand was screened for PPARδ binding and transactivation activity through the use of two complementary reporter assays as described below. In both systems, transfection efficiency was standardized by co-transfection of a control Renilla luciferase. U2-OS (human bone cancer line) cells were used for both assays because this is the cell line of choice for screening PPAR ligands. At 18 h post-transfection, GW 501, with and without the ligands of the disclosure, was added to the cells and incubated for an additional 24 h. The cells were then harvested and luciferase activities profiled.
A PPARδ protein ligand-binding domain (LBD) assay. The LBD assay consists of cellular co-transfection of a plasmid containing an LBD/Gal4 fusion construct and a vector containing a UAS-tk-luciferase reporter construct under the transcriptional control of a Gal4 upstream activating sequence. This system was used to test for binding activities of candidate PPARδ ligands to the LBD of PPARδ protein.
(§3) Referring to FIG. 3, U2-OS cells were transiently transfected with appropriate expression and reporter vectors. Ligands were added to the cell cultures 24 h post-transfection and incubated for an additional 16 h. Lipoprotein lipase (LPL; 2 μg/ml) was added with VLDL (5 μg/ml) to release PPARδ-active triglycerides. FIG. 3A: PPARδ LBD/Gal4/UAS-tk-luc competition assays with VLDL SR13904 (0-10 μM). The reporter activation (fold increase over blank) is presented relative to GW501516 at 7 nM (fold increase over blank=100). FIG. 3B: PPRE reporter assays using 0, 1, and 10 μM SR13904+VLDL. All assays were repeated in triplicate.
On the technique in general: Reporter assays use an easily measured gene product as a stand-in for the process of interest.

Data set [3] can be described thus: Solubility in DMSO (noted in binding assay column). The class given is physicochemical.
A further data set addresses T3, PPARδ (Homo sapiens, UniProt Q03181).
T3 construct: expressed in transfected cells; host or cells: U2-OS (human bone cancer line)
T3 sequence (Q03181 1-441): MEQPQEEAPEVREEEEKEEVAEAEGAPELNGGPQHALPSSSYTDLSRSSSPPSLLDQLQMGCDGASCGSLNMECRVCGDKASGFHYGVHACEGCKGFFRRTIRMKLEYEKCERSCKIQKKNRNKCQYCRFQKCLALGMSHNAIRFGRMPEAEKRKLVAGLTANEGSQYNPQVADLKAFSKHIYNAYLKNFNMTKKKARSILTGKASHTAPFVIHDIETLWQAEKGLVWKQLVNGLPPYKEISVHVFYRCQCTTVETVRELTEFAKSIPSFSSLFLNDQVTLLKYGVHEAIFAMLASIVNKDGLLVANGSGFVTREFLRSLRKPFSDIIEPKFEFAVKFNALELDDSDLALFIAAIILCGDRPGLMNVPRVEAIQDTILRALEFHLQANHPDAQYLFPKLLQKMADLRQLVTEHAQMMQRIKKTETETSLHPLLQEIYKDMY
Description: PPRE promoter/luciferase reporter (transactivation) assay in U2-OS cells. The data set is classed as cell-based. The protocol:
as §2
A promoter/luciferase reporter assay. This assay involves co-transfection of a PPARδ expression vector and a plasmid containing a luciferase gene under the control of PPARδ responsive DNA element (three copies of a consensus PPAR response element, PPRE). This assay was used to directly test ligand effects on PPARδ-responsive genes.
as §3

A further data set has as its system A549 cells. Description: Apoptosis, Cell Death Detection ELISA (DNA fragmentation) in A549 cells. The data set is classed as cell-based, human. The conditions noted are these: A549, GW501 1 μM with SR13904 15 μM. The protocol: Referring now to FIG. 6, SR13904 treatment of cancer cells results in increased apoptosis. A549 cells (2×10^4 cells/well) were incubated in 0.5% media (96 well plates) SR13904 for 40 h. The relative degrees of apoptosis were determined using a Cell Death Detection ELISA (Roche). SR represents SR13904. ***p=<0.001 SR vs. SR+GW501.
SR13904 treatment results in increased apoptosis. Down-regulation of PPARδ, either by genetic knockout or by the treatment with 13-S—HODE (15-lipoxygenase-1 product), induces apoptosis in colorectal cancer cells. The effects of SR13904 (15 μM) GW501 (1 μM) on survival of A549 cells (0.5% serum) was determined. Relative degrees of apoptosis were measured using a DNA fragmentation assay.
(An ELISA detects its analyte on a solid surface through an enzyme-linked reagent.)

[4] abbreviates: competes binding by a labeled pan-agonist by 50%, * = determined by approximation from a semi log graph, read-out: TR-F binding IC50.

From patent US20090163481A1, “PPAR-DELTA LIGANDS AND METHODS OF THEIR USE” (priority 2007, published 2009) come the findings set out here.

SMILES strings stand for the structures. Read-outs that look alike come from different tables or passages of the source. A value given as a limit tells only on which side of the number the result lay.

Turning to `Cc1cc(SCCC(=O)N(Cc2ccc(Cl)cc2)C(c2ccccc2)c2ccccc2)ccc1OCC(=O)O` [SRI-010262], the results for the IC50 in data set [1] and in data set [2] (setting [4]) were 5.6 µM and more than 18 µM, respectively.

Take `Cc1cc(SCCOC(c2ccccc2)c2ccc(C(F)(F)F)cc2)ccc1OCC(=O)O` (stereo not shown) [SRI-010254]: the IC50 in data set [1] turned out to be 7.4 µM; in data set [2] (setting [4]), 1.3 µM.

Take `CCCc1cc(SCc2sc(-c3ccc(CC)cc3)nc2C)ccc1OCC(N)=O` [SR 13910]: at LBD of PPARδ protein, the “PPARδ ligand profile (agonist/antagonist)” value was “low-affinity agonists”.

With `Cc1cc(SCCC(=O)N(Cc2ccc(F)c(F)c2)C(c2ccccc2)c2ccccc2)ccc1OCC(=O)O` [SRI-010263], the IC50 in data set [1] was 9.1 µM; in data set [2] (setting [4]), more than 25 µM.

With `Cc1cc(SCCn2c3ccccc3c3ccccc32)ccc1OCC(=O)O` [SRI-010252], the IC50 is 9 µM in data set [1] and more than 30 µM in data set [2] (setting [4]).

On to `COc1ccc(CN(C(=O)CSc2ccc(OCC(=O)O)c(C)c2)C(c2ccccc2)c2ccccc2)cc1OC` [SRI-010259], for which the values for the IC50 in data set [1] and in data set [2] (setting [4]) were more than 40 µM and more than 30 µM, respectively.

Regarding `Cc1cc(SCC(=O)N(Cc2ccccc2)C(c2ccccc2)c2ccccc2)ccc1OCC(=O)O` [SRI-010255], the IC50 in data set [1] was 5 µM; in data set [2] (setting [4]), more than 12 µM.

Regarding `Cc1cc(SCCC(=O)N(Cc2ccccc2)C(c2ccccc2)c2ccccc2)ccc1OCC(=O)O` [SRI-010261], the figures for the IC50 in data set [1] and in data set [2] (setting [4]) were 8.5 µM and more than 20 µM, respectively.

Consider `Cc1cc(SCCOC2c3ccccc3-c3ccccc32)ccc1OCC(=O)O` [SRI-010248], for which the IC50 in data set [1] was 9 µM; in data set [2] (setting [4]) it was more than 30 µM.

`Cc1cc(SCCN2c3ccccc3Sc3ccc(C(F)(F)F)cc32)ccc1OCC(=O)O` [SRI-010250]: the IC50 was 7 µM in data set [1] and 3.8 µM in data set [2] (setting [4]).

Take `Cc1cc(SCC(=O)NC(c2ccccc2)c2ccccc2)ccc1OCC(=O)O` [SRI-010260]: the IC50 in data set [1] was more than 40 µM. The “solubility in DMSO” value in data set [3] is reported as “not soluble in DMSO”.

As for `Cc1cc(SCc2sc(-c3ccc(C(C)(C)C)cc3)nc2C)ccc1OCC(=O)O` [SR 13906], the “inhibition of PPARδ-mediated transactivation” value on PPARδ is “appear to inhibit”. On LBD of PPARδ protein, the “PPARδ ligand profile (agonist/antagonist)” value is given as “low-affinity agonists”.

For the molecule `Cc1cc(SCC(=O)N(Cc2ccc(F)c(F)c2)C(c2ccccc2)c2ccccc2)ccc1OCC(=O)O` [SRI-010257], the IC50 in data set [1] is 9.1 µM; in data set [2] (setting [4]) it was more than 23 µM.

`COc1ccc(CN(C(=O)CCSc2ccc(OCC(=O)O)c(C)c2)C(c2ccccc2)c2ccccc2)cc1OC` [SRI-010265]: the IC50 in data set [1] was more than 40 µM; in data set [2] (setting [4]), more than 30 µM.

Turning to `Cc1cc(SCCOC(c2ccccc2)c2ccccc2)ccc1OCC(=O)O` [SRI-010253], the results for the IC50 in data set [1] and in data set [2] (setting [4]) were 14 µM and 3 µM, respectively.

Consider `CCCc1cc(SCc2sc(-c3cccc4ccccc34)nc2C)ccc1OCC(=O)O` [SR 13905], for which the “inhibition of PPARδ-mediated transactivation” value at PPARδ is listed as “appear to inhibit”.

Regarding `Cc1cc(SCC(=O)N(Cc2ccc(Cl)cc2Cl)C(c2ccccc2)c2ccccc2)ccc1OCC(=O)O` [SRI-010258], the results for the IC50 in data set [1] and in data set [2] (setting [4]) were 4.8 µM and more than 14 µM, respectively.

As to `Cc1cc(SCCC(=O)N(Cc2ccc(Cl)cc2Cl)C(c2ccccc2)c2ccccc2)ccc1OCC(=O)O` [SRI-010264], the IC50 was 5.9 µM in data set [1] and more than 25 µM in data set [2] (setting [4]).

With `Cc1cc(SCCOC(c2ccc(F)cc2)c2ccc(F)cc2)ccc1OCC(=O)O` [SRI-010249], the IC50 is 5.4 µM in data set [1]; 0.85 µM in data set [2] (setting [4]); 1.2 µM in data set [2] (repeat determination of TR-F binding IC50, read-out: repeat TR-F).

In the case of `Cc1cc(SCCC(=O)NC(c2ccccc2)c2ccccc2)ccc1OCC(=O)O` [SRI-010266], the results for the IC50 in data set [1] and in data set [2] (setting [4]) were more than 40 µM and more than 30 µM, respectively.

As to `Cc1cc(SCc2sc(-c3ccc(C(F)(F)F)cc3)nc2C)ccc1OCC(=O)O` [GW 501516, reference compound], the “effect of co-treatment on SR13904-induced apoptosis” value in the data set with A549 cells is given as “markedly alleviated”.

As for `Cc1cc(SCCN2c3ccccc3Sc3ccccc32)ccc1OCC(=O)O` [SRI-010251], the IC50 in data set [1] worked out at 7.6 µM; in data set [2] (setting [4]), 13.7 µM.

For the molecule `CCCc1cc(SCc2sc(-c3ccc(C(C)(C)C)cc3)nc2C)ccc1OCC(=O)O` [SR 13907], on PPARδ, the “inhibition of PPARδ-mediated transactivation” value was “appear to inhibit”. Moreover, at LBD of PPARδ protein, the “PPARδ ligand profile (agonist/antagonist)” value is “low-affinity agonists”.

Take `Cc1cc(SCc2sc(-c3ccc4ccccc4c3)nc2C)ccc1OCC(=O)O` [SR 13961]: the “PPARδ ligand profile (agonist/antagonist)” value at LBD of PPARδ protein is recorded as “low-affinity agonists”.

`Cc1cc(SCC(=O)N(Cc2ccc(Cl)cc2)C(c2ccccc2)c2ccccc2)ccc1OCC(=O)O` [SRI-010256]: the IC50 in data set [2] (setting [4]) was more than 18 µM.
